Where a SMILES comes first, the peptide text is derived from it.
Columns and labels:
Assay type in all cases: cell-based
R3 cells = assay: Staurosporine-induced cell death, LIVE/DEAD staining; conditions: Staurosporine 100 nM, no peptide, average ± SEM
Experimental: (§1) N1E and R3 ([33-10ras3] (ATCC® CRL-2764™)) cells were grown to about 80% of confluency in 6-well plates covered with D-poly-lysine. Peptides (500 nM or 10 µM) were added to the cells 1 h before treatments. The tested apoptogenic treatments were: Staurosporine (100 nM, 18 h), serum withdraw (20 days for N1E cells and 5 days for R3 cells), heat shock (43 °C, 1 h plus overnight recovery), Camptothecin (10 μM, 18 h), H2O2 (100 μM, 18 h). After the treatment the cells were carefully washed with PBS and stained simultaneously with Calcein A and Ethidium homodimer-1 (LIVE/DEAD® Viability/Cytotoxicity Kit, LifeTechnologies) for 30 min at room temperature. Cells were photographed in an inverted microscope immediately after staining. Percentage of survived cells was calculated from 3 randomly selected fields of view; average cell death rate ± SEM was calculated using GraphPad Prism (version 6.0 h for MacOS, GraphPad Software, La Jolla, USA). Antibodies specific to cleaved Caspase-3 (Asp175) (Rabbit monoclonal 5A1E, CST) were used to visualize Caspase-3 activation in N1E cells by Western blotting.

N1E cells [1] = assay: as above; conditions: overnight exposure to 100 nM Staurosporine, no peptide, average ± SEM
Experimental: as §1

N1E and R3 cells [2] = assay: Hydrogen peroxide induced apoptosis, LIVE/DEAD staining; conditions: H2O2 100 μM, 18 h, cells untreated with peptides; average ± SEM
Experimental: as §1

N1E and R3 cells [3] = assay: Camptothecin-induced apoptosis, LIVE/DEAD staining; conditions: Camptothecin 10 μM, 18 h, no peptide
Experimental: as §1

N1E cells [4] = assay: MALDI-TOF analysis of lysates from peptide-loaded cells; conditions: 500 nM peptide, 30 min at 37 °C, Triton X-100 lysate after trichloroacetic acid sedimentation, not quantitative
Experimental: About 10^6 cells (N1E cells) were exposed to 500 nM of DL18 peptide in normal culture media for 30 min at 37 °C. After exposure the cells were washed twice with PBS, lyzed with 1% Triton X-100 in distilled water and the proteins were sedimented with equal volume of 40% trichloroacetic acid. After centrifugation (9000g, 20 min) 20 μl of supernatant was applied on MALDI plate, mixed with solution of 2,5-dihydroxybenzoic acid and subjected for MALDI-TOF analysis.

CN[C@@H]1C[C@H]2O[C@@](C)([C@@H]1OC)n1c3ccccc3c3c4c(c5c6ccccc6n2c5c31)C(=O)NC4 [Staurosporine]
dead cells (R3 cells): 15.33 ± 3.76%
cell death (N1E cells [1]): 89.67 ± 5.04%

OO [H2O2, hydrogen peroxide]
dead cells (N1E and R3 cells [2]): 84.8 ± 4.28%

CC[C@@]1(O)C(=O)OCc2c1cc1n(c2=O)Cc2cc3ccccc3nc2-1 [Camptothecin]
apoptosis induction (N1E and R3 cells [3]): induces apoptosis in limited number of cells

CC[C@@H](C)[C@@H](NC(=O)[C@@H](CCC(=O)O)NC(=O)[C@H](NC(=O)[C@@H](CC(=O)O)NC(=O)[C@@H](CO)NC(=O)CNC(=O)[C@H](N)[C@H](C)O)[C@H](C)O)C(=O)NCC(=O)N[C@@H](CCCNC(=N)N)C(=O)N[C@@H](CCCCN)C(=O)N[C@@H](CCCCN)C(=O)N[C@@H](CCCNC(=N)N)C(=O)N[C@@H](CCCNC(=N)N)C(=O)N[C@@H](CCC(N)=O)C(=O)N[C@@H](CCCNC(=N)N)C(=O)N[C@@H](CCCNC(=N)N)C(=O)N[C@@H](CCCNC(=N)N)C(=O)NCC(=O)O [DL18] (HELM PEPTIDE1{[dT].G.[dS].[dD].[dT].[dE].[dI].G.R.K.K.R.R.Q.R.R.R.G}$$$$V2.0)
dynamics of cellular catabolism of the peptide (prevalence of non-metabolized m/z 2158 peak) (N1E cells [4]): not considerable
